From paper PMC4240912, “Multifaceted interplay between lipophilicity, protein interaction and luminescence parameters of non-intercalative ruthenium(II) polypyridyl complexes controlling cellular imaging and cytotoxic properties” (Journal of Biological Inorganic Chemistry, 2014)

Tests used:
[1] = molecular target: human serum albumin (HSA) (Homo sapiens, UniProt P02768); assay: HSA fluorescence quenching (protein-binding experiments); settings: [HSA] = 1 μM, [Ru] 0–10 μM, PBS pH 7.4, 37 °C
Procedure: The protein stock solution was prepared by dissolving human serum albumin (HSA) in water and its concentration was determined spectrophotometrically from the molar absorptivity of 4.4 × 10^4 cm^−1 M^−1 at 280 nm. The emission spectra were recorded between 305 and 500 nm upon excitation at 295 nm resulting in selective excitation of tryptophan residue of HSA. The average of three scans was subjected to smoothing and the fluorescence intensities were corrected due to dilution effects. Protein-binding experiments were conducted by measuring fluorescence spectra of protein solution (1 μM) in the presence of different amounts of ruthenium compounds (0–10 μM) in PBS buffer pH 7.4 at 37 °C. Ru–protein solutions were allowed to incubate for 5 min before the emission spectra were recorded. The quantum yield and lifetime of luminescence for ruthenium complexes in the present of HSA (1 μM) was measured using the same procedure as described for ruthenium complexes alone (the HSA/Ru-complex ratio is given in the figure caption). […]
When molecules are bound to HSA, the change in fluorescence of HSA (Trp214) is induced ether by quenching by binding of molecules in close proximity of the residue or by conformational change of protein caused by the binding or other interactions. Albumin […]
polypyridyl complexes. The contribution to the observed emission from ruthenium complex is marginal. The Stern-Volmer equation has been employed for quantitative analysis of the […]
where F0 and F are the fluorescence intensities of HSA in the absence and the presence of quencher (Q, Ru complex), respectively; kq is the bimolecular quenching constant; τ0 is the average lifetime of the HSA in the absence of quencher (7 × 10-9 s), [Q] is the concentration of quencher, KSV is the Stern–Volmer constant. Since ruthenium complexes both absorb light at the excitation and the emission wavelengths in order to correlate the inner filter effect the following equation was used: where Fcor and F are the corrected/uncorrected fluorescence intensities of HSA, Aem and Aex are the absorbance value of the solution at the emission and the excitation wavelength […]
quenching involving some type of binding interaction between HSA and ruthenium complexes. In this case the Stern-Volmer constant can be consider as an association constant for formation of HSA-Ru-complexes adducts. […]
(also on this page, place not known: nm , Stern -Volmer ][1][1 0 0 QKQkF SVq ·+=·+= τ 10 -9 [ Q] Stern –Volmer es 210 exem AA cor FF + ·= F -binding ct -DNA ba nds complex w ith DNA)

[2] = test system: Calf thymus deoxyribonucleic acid; assay: DNA absorption titration (intrinsic DNA-binding constant); settings: [Ru] = 10 µM, 0.05 M Tris/HCl pH 7.4, 37 °C
Procedure: Calf thymus deoxyribonucleic acid was purchased from Sigma-Aldrich and its stock solution was prepared by dissolving of solid DNA in water. DNA concentrations per nucleotide were determined by absorption spectroscopy using the molar absorption coefficient of 6,600 M^−1cm^−1 at the wavelength of 260 nm. DNA-binding experiments were performed in 0.05 M Tris/HCl buffer (pH 7.4) at 37 °C. […] Ruthenium–DNA solutions were allowed to incubate for 5 min before the spectra were recorded. The intrinsic DNA-binding constant was calculated from the following Eq. [4]. DNA/εa-εf=DNA/εa-εf+1/Kbεb-εf, where [DNA] is the total DNA concentration in nucleotides, ε a, ε b, ε f are the apparent absorption coefficients of A/[ruthenium complex] of the MLCT absorption band at a given DNA concentration, fully bound and free ruthenium complex, respectively, K b is binding constant.
To be submitted to Journal of Biological Inorganic Chemistry intercalation.[4] The hypochromism and batochromism at MLCT bands is found usually higher for other reported polypyridyl DNA intercalative Ru(II) complexes.[5-8] To assess this interaction the intrinsic DNA-binding constant was calculated from the following equation […]
where [DNA] is the total DNA concentration in nucleotides, εa, εb, εf are the apparent absorption coefficients of A/[ruthenium complex] of the MLCT absorption band at a given DNA concentration, fully bound and free ruthenium complex, respectively, Kb is binding […]
isosbestic points and gradual decrease of the absorption of MLCT bands. This observation […]
rather week interaction with DNA it is not further discussed.
Fig. S3. Changes in absorption spectra of [Ru(dip)2(CH3bpy-DCU)]2+ and [Ru(dip)2(CH3bpy-CH3)]2+ after addition of ct-DNA. Experimental conditions: [Ru] = 10 μM; Tris/HCl pH 7.4, T = 37°C, A. [DNA] = 0 – 2 μM; B. [DNA] = 5 – 120 μM. […]

[3] = n-octan-1-ol/water partition (lipophilicity); assay type: physicochemical; settings: 25 °C
Procedure: The lipophilicity of the ruthenium(II) complexes, which is referred to log P o/w (n-octan-1-ol/water partition coefficient), was measured as following. Ruthenium complexes were dissolved in n-octan-1-ol (to mM concentration), then solutions were added to water and the mixtures were stirred sufficiently for partitioning at 25 °C for 24 h. After that the mixtures were left for equilibration for another 2 h. The concentration of the compounds in the water phase was measured spectrophotometrically and P o/w value was calculated according to the equation: PO/w=coctanolbefore-cwater/cwater , where coctanolbefore is an initial concentration of ruthenium complex, c water denotes final concentration in water. The experiment was conducted in triplicates.

[4] = test system: FVB mouse lung microvascular endothelial cells (MLuMEC FVB); assay: Alamar Blue cell viability, MLuMEC; assay type: cell-based; settings: 24 h
Procedure: (§1) FVB mouse lung microvascular endothelial cells (MLuMEC FVB) and murine endothelial cells isolated from aorta-gonad-mesonephros (AGM) region of 10.5 dpc embryos (MAgEC 10.5) were cultured in OptiMEM with Glutamax-I (Gibco Invitrogen) supplemented with 2% fetal bovine serum (FBS), 0.4% gentamycin and 0.2% fungizone. […]
(§2) 10% FBS, 1% peniciline and streptomycin and 0.2% fungizone. Cells were routinely cultured at 37 °C in a humidified incubator in 5% CO2 atmosphere.
(§3) Cell viability was measured using Alamar Blue assay. Cells were seeded on 96 wells plate with density of 1 × 10^4 cells per cm2 and cultured for 1 day. Then cells were incubated with various concentrations of compounds in medium with or without 2% FBS for 24 and 48 h under normoxic and hypoxic conditions in the darkness. Next cells were washed with PBS and incubated in Alamar Blue solution for 3 h. The cell viability was quantified at 605 nm using 560 nm excitation light (VICTOR 3V multilabel plate reader PerkinElmer or Tecan Infinite200 Reader). Experiments were performed in triplicates and each experiment was performed at least three times to get the mean values ± standard derivation. The viability was calculated with regard to the untreated cells control. The IC50 values were determined using Hill equation (Origin 9.0). […]

[5] = test system: murine endothelial cells isolated from aorta-gonad-mesonephros (AGM) region of 10.5 dpc embryos (MAgEC 10.5); assay: Alamar Blue cell viability, MAgEC 10.5; assay type: cell-based; settings: MAgEC 10.5, 24 h
Procedure: as §1, §2, §3

human serum albumin (HSA), sequence (P02768 25-609): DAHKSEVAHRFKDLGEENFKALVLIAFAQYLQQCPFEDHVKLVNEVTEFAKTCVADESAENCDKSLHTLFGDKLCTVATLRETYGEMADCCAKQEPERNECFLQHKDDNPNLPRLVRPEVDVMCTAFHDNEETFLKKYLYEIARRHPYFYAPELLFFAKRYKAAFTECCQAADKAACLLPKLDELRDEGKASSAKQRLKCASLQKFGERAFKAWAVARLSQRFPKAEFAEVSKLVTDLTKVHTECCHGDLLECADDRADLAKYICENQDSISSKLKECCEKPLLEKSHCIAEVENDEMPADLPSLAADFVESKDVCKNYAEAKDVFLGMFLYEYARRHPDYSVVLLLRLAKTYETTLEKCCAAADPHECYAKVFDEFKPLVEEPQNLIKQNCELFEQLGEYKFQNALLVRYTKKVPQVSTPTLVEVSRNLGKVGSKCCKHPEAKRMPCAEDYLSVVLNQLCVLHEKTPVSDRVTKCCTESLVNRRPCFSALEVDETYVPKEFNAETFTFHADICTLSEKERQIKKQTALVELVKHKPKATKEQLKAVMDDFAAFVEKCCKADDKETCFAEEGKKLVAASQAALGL

Compound	K a, association constant for formation of HSA-ruthenium(II) polypyridyl complex adducts [1]	K b, binding constant for formation of DNA-ruthenium(II) polypyridyl complex adducts [2]	log P o/w [3]	IC50 ([4]; with serum (2%))	IC50 ([4]; without serum)	IC50 ([5]; with serum (2%))	IC50 ([5]; without serum)
O=[N+]([O-])c1nccn1CCCc1ccnc(-c2ccccn2)c1.[Ru+2].c1ccc(-c2ccnc3c2ccc2c(-c4ccccc4)ccnc23)cc1.c1ccc(-c2ccnc3c2ccc2c(-c4ccccc4)ccnc23)cc1 [[Ru(dip)2(bpy-NitroIm)]^2+]	1.10 ± 0.06 ×10^5 M^−1	0.68 ± 0.01 ×10^5 M^−1	0.413 ± 0.083	10.4 ± 1.31 µM	6.08 ± 0.7 µM	7.4 ± 0.81 µM	4.65 ± 0.62 µM
[Ru+2].c1ccc(-c2ccccn2)nc1.c1ccc(-c2ccnc3c2ccc2c(-c4ccccc4)ccnc23)cc1.c1ccc(-c2ccnc3c2ccc2c(-c4ccccc4)ccnc23)cc1 [[Ru(dip)2(bpy)]^2+]	0.78 ± 0.02 ×10^5 M^−1	0.82 ± 0.01 ×10^5 M^−1	0.328 ± 0.026	11.7 ± 1.6 µM	4.7 ± 0.41 µM	16.7 ± 1.88 µM	4.15 ± 0.57 µM
Cc1ccnc(-c2cc(C)ccn2)c1.[Ru+2].c1ccc(-c2ccnc3c2ccc2c(-c4ccccc4)ccnc23)cc1.c1ccc(-c2ccnc3c2ccc2c(-c4ccccc4)ccnc23)cc1 [[Ru(dip)2(CH3bpy-CH3)]^2+]	1.24 ± 0.06 ×10^5 M^−1	0.53 ± 0.03 ×10^5 M^−1	0.484 ± 0.046	8.32 ± 0.06 µM	3.36 ± 0.35 µM	6.28 ± 0.52 µM	2.45 ± 0.42 µM
[Ru(dip)2(1,3-dicyclohexyl-1-[4-carbonyl-(4′-methyl-2,2′-bipyridyl)]-urea)]Cl2 [[Ru(dip)2(CH3bpy-DCU)]^2+]	0.98 ± 0.03 ×10^5 M^−1	0.60 ± 0.02 ×10^5 M^−1	1.114 ± 0.012	5.84 ± 0.24 µM	2.28 ± 0.61 µM	4.62 ± 0.22 µM	2.54 ± 1.12 µM
Cc1ccnc(-c2cc(C(=O)[O-])ccn2)c1.[Ru+2].c1ccc(-c2ccnc3c2ccc2c(-c4ccccc4)ccnc23)cc1.c1ccc(-c2ccnc3c2ccc2c(-c4ccccc4)ccnc23)cc1 [[Ru(dip)2(CH3bpy-COO)]^+]	1.17 ± 0.04 ×10^5 M^−1	1.05 ± 0.15 ×10^5 M^−1	1.857 ± 0.079	18.1 ± 2.19 µM	7.74 ± 1.26 µM	16 ± 1.5 µM	7.23 ± 0.53 µM
